We go through ten molecules from US20250188092A1, “RIFAMYCIN ANALOGS” (THE REGENTS OF THE UNIVERSITY OF MICHIGAN, priority 2021, published 2025).

For assay [1], the system named is M. tuberculosis transformed with luxABCDE. As to the kind of experiment: microbe, parasite or virus in culture. The assay is classed as cell-based, Mycobacterium tuberculosis. Conditions: for MBC: Mycobacterium tuberculosis, 168 h, ≥99% reduction in luminescence, read-out: MBC99 Day 7 (Lux Assay) MBC.
In assay [2] the test system is non-replicating cultures of M. tuberculosis H37Rv transformed with lux ABCDE. As to the kind of experiment: microbe, parasite or virus in culture. The assay is classed as cell-based, Mycobacterium tuberculosis. The settings on record: for MIC / MIC90: Mycobacterium tuberculosis, H37RV, ≥90% reduction in luminescence, read-out: MIC90 LORA; for MIC90 LORA/MABA: ratio of LORA MIC90 to MABA MIC90.

≈ marks a conversion by molar mass, not a printed value.

For the molecule `CO[C@H]1/C=C/O[C@@]2(C)Oc3c(C)c(O)c4c(=O)c(c5oc6cc(N7CCN(C(=O)C(C)(C)C)CC7)cc(OCc7ccc(CN8CCOCC8)cc7)c6nc-5c4c3C2=O)NC(=O)/C(C)=C\C=C\[C@H](C)[C@H](O)[C@@H](C)[C@@H](O)[C@@H](C)[C@H](OC(C)=O)[C@@H]1C` [Compound 17f, (7S,9E,11S,12R,13S,14R,15R,16R,17S,18S,19E,21Z)-30-[4-(2,2-Dimethylpropanoyl)-piperazin-1-yl]-2,15,17-trihydroxy-11-methoxy-3,7,12,14,16,18,22-heptamethyl-32-({4-[(morpholin-4-yl)methyl]phenyl}methoxy)-6,23,37-trioxo-8,27,38-trioxa-24,34-diazahexacyclo[23.11.1.1^4,7.0^5,36.0^26,35.0^28,33]octatriaconta-1(36)2,4,9,19,21,25,28,30,32,34-undecaen-13-yl acetate], in assay [1], the MBC is above 0.1 µM. Besides, in assay [2], the “MIC90 LORA Rel to RMP” value was found to be 1.8, the MIC came to 0.369 µM and the “MIC90 LORA/MABA” value was 14.

For the molecule `CCC(=O)N1CCN(c2cc(OCc3ccc(CN4CCOCC4)cc3)c3nc4c5c6c7c(C)c(O)c5c(=O)c(c-4oc3c2)NC(=O)/C(C)=C\C=C\[C@H](C)[C@H](O)[C@@H](C)[C@@H](O)[C@@H](C)[C@H](OC(C)=O)[C@H](C)[C@@H](OC)/C=C/O[C@@](C)(O7)C6=O)CC1` [Compound 17g, (7S,9E,11S,12R,13S,14R,15R,16R,17S,18S,19E,21Z)-2,15,17-Trihydroxy-11-methoxy-3,7,12,14,16,18,22-heptamethyl-32-({4-[(morpholin-4-yl)methyl]phenyl}methoxy)-6,23,37-trioxo-30-(4-propanoylpiperazin-1-yl)-8,27,38-trioxa-24,34-diazahexacyclo-[23.11.1.1^4,7.0^5,36.0^26,35.0^28,33]octatriaconta-1(36)2,4,9,19,21,25,28,30,32,34-undecaen-13-yl acetate], the MBC in assay [1] is above 0.1 µM. In assay [2], the “MIC90 LORA Rel to RMP” value stood at 0.3, the MIC90 came to 0.065 µM and the “MIC90 LORA/MABA” value turned out to be 5.4.

Consider `CO[C@H]1/C=C/O[C@@]2(C)Oc3c(C)c(O)c4c(=O)c(c5oc6cc(N7CCS(=O)(=O)CC7)cc(OCc7ccc(CN8CCOCC8)cc7)c6nc-5c4c3C2=O)NC(=O)/C(C)=C\C=C\[C@H](C)[C@H](O)[C@@H](C)[C@@H](O)[C@@H](C)[C@H](OC(C)=O)[C@@H]1C` [Compound 17j, (7S,9E,11S,12R,13S,14R,15R,16R,17S,18S,19E,21Z)-30-(1,1-dioxothiomorpholin-4-yl)-2,15,17-trihydroxy-11-methoxy-3,7,12,14,16,18,22-heptamethyl-32-([4-(morpholin-4-ylmethyl)phenyl]methoxy)-6,23,37-trioxo-8,27,38-trioxa-24,34-diazahexacyclo-[23.11.1.1^4,7.0^5,36.0^26,35.0^28,33]octatriaconta-1,3,5(36)9,19,21,25,28,30,32,34-undecaen-13-yl acetate], for which, in assay [1], the MBC is above 0.1 µM. Moreover, the MIC in assay [2] is above 0.02 µM.

As for `CO[C@H]1/C=C/O[C@@]2(C)Oc3c(C)c(O)c4c(=O)c(c5oc6cc(C)cc(N7CCN(C(=O)c8cccc(-n9ccnc9)c8)CC7)c6nc-5c4c3C2=O)NC(=O)/C(C)=C\C=C\[C@H](C)[C@H](O)[C@@H](C)[C@@H](O)[C@@H](C)[C@H](OC(C)=O)[C@@H]1C` [Compound 30f, (7S,9E,11S,12R,13S,14R,15R,16R,17S,18S,19E,21Z)-2,15,17-Trihydroxy-32-{4-[3-(1H-imidazol-1-yl)benzoyl]piperazin-1-yl}-11-methoxy-3,7,12,14,16,18,22,30-octamethyl-6,23,37-trioxo-8,27,38-trioxa-24,34-diazahexacyclo[23.11.1.1^4,7.0^5,36.0^26,35.0^28,33]octatriaconta-1(36)2,4,9,19,21,25,28,30,32,34-undecaen-13-yl acetate], in assay [1], the “MBC99 Day 7 (Lux Assay) MBC Rel to RMP” value came out at 0.24 and the MBC was determined as 0.11 µM. For the same molecule, in assay [2], the “MIC90 LORA Rel to RMP” value turned out to be 0.57, the MIC90 is 0.117 µM and the “MIC90 LORA/MABA” value is 2.7.

Consider `CO[C@H]1/C=C/O[C@@]2(C)Oc3c(C)c(O)c4c(=O)c(c5oc6cc(N7CCC(C(=O)O)CC7)cc(OCc7ccc(CN8CCOCC8)cc7)c6nc-5c4c3C2=O)NC(=O)/C(C)=C\C=C\[C@H](C)[C@H](O)[C@@H](C)[C@@H](O)[C@@H](C)[C@H](OC(C)=O)[C@@H]1C` [Compound 17k], for which, in assay [1], the MBC was above 0.1 µM. For the same molecule, the MIC in assay [2] was above 0.02 µM.

In the case of `CO[C@H]1/C=C/O[C@@]2(C)Oc3c(C)c(O)c4c(=O)c(c5oc6cc(N7CCN(C(=O)c8cccc(-c9ccccn9)c8)CC7)cc(C)c6nc-5c4c3C2=O)NC(=O)/C(C)=C\C=C\[C@H](C)[C@H](O)[C@@H](C)[C@@H](O)[C@@H](C)[C@H](OC(C)=O)[C@@H]1C` [Compound 29b, (7S,9E,11S,12R,13S,14R,15R,16R,17S,18S,19E,21Z)-2,15,17-Trihydroxy-11-methoxy-3,7,12,14,16,18,22,32-octamethyl-6,23,37-trioxo-30-(4-[3-(pyridin-2-yl)benzoyl]piperazin-1-yl)-8,27,38-trioxa-24,34-diazahexacyclo-[23.11.1.1^4,7.0^5,36.0^26,35.0^28,33]octatriaconta-1(36)2,4,9,19,21,25,28,30,32,34-undecaen-13-yl acetate], in assay [1], the “MBC99 Day 7 (Lux Assay) MBC Rel to RMP” value is 0.11 and the MBC is 0.05 µM. Moreover, in assay [2], the “MIC90 LORA Rel to RMP” value was 0.03, the MIC90 was 0.006 µM and the “MIC90 LORA/MABA” value is 0.7.

As to `CO[C@H]1/C=C/O[C@@]2(C)Oc3c(C)c(O)c4c(=O)c(c5oc6cc(N7CCN(CC(=O)O)CC7)cc(C)c6nc-5c4c3C2=O)NC(=O)/C(C)=C\C=C\[C@H](C)[C@H](O)[C@@H](C)[C@@H](O)[C@@H](C)[C@H](OC(C)=O)[C@@H]1C` [Compound 29h, 2-{4-[(7S,9E,11S,12R,13S,14R,15R,16R,17S,18S,19E,21Z)-13-(acetyloxy)-2,15,17-trihydroxy-11-methoxy-3,7,12,14,16,18,22,32-octamethyl-6,23,37-trioxo-8,27,38-trioxa-24,34-diazahexacyclo[23.11.1.1^4,7.0^5,36.0^26,35.0^28,33]octatriaconta-1,3,5(36)9,19,21,25,28,30,32,34-undecaen-30-yl]piperazin-1-yl}acetic acid], the MBC in assay [1] was above 0.1 µM. Moreover, in assay [2], the “MIC90 LORA Rel to RMP” value turned out to be 5.0, the MIC90 was found to be 0.133 µM (≈ 0.125 µg/mL) and the “MIC90 LORA/MABA” value was found to be 7.2.

In the case of `CO[C@H]1/C=C/O[C@@]2(C)Oc3c(C)c(O)c4c(=O)c(c5oc6cc(N7CCN(C(=O)C(C)(C)C)CC7)cc(C)c6nc-5c4c3C2=O)NC(=O)/C(C)=C\C=C\[C@H](C)[C@H](O)[C@@H](C)[C@@H](O)[C@@H](C)[C@H](OC(C)=O)[C@@H]1C` [Compound 26f, (7S,9E,11S,12R,13S,14R,15R,16R,17S,18S,19E,21Z)-30-[4-(2,2-Dimethylpropanoyl)piperazin-1-yl]-2,15,17-trihydroxy-11-methoxy-3,7,12,14,16,18,22,32-octamethyl-6,23,37-trioxo-8,27,38-trioxa-24,34-diazahexacyclo[23.11.1.1^4,7.0^5,36.0^26,35.0^28,33]octatriaconta-1(36)2,4,9,19,21,25,28,30,32,34-undecaen-13-yl acetate], in assay [1], the “MBC99 Day 7 (Lux Assay) MBC Rel to RMP” value worked out at 0.09 and the MBC was found to be 0.043 µM. In addition, in assay [2], the “MIC90 LORA Rel to RMP” value is on record as 0.05, the MIC90 came to 0.0095 µM and the “MIC90 LORA/MABA” value was determined as 2.1.

In the case of `CO[C@H]1/C=C/O[C@@]2(C)Oc3c(C)c(O)c4c(=O)c(c5oc6cc(N7CCN(CCCCCCO[C@@H]8COc9nc([N+](=O)[O-])cn9C8)CC7)cc(C)c6nc-5c4c3C2=O)NC(=O)/C(C)=C\C=C\[C@H](C)[C@H](O)[C@@H](C)[C@@H](O)[C@@H](C)[C@H](OC(C)=O)[C@@H]1C` [Compound 29e, (7S,9E,11S,12R,13S,14R,15R,16R,17S,18S,19E,21Z)-2,15,17-Trihydroxy-11-methoxy-3,7,12,14,16,18,22,32-octamethyl-30-[4-(6-{[(6S)-2-nitro-5H,6H,7H-imidazo[2,1-b][1,3]oxazin-6-yl]oxy}hexyl)piperazin-1-yl]-6,23,37-trioxo-8,27,38-trioxa-24,34-diazahexacyclo[23.11.1.1^4,7.0^5,36.0^26,35.0^28,33]octatriaconta-1(36)2,4,9,19,21,25,28,30,32,34-undecaen-13-yl acetate], in assay [1], the “MBC99 Day 7 (Lux Assay) MBC Rel to RMP” value was 0.11 and the MBC is 0.05 µM. In assay [2], the “MIC90 LORA Rel to RMP” value is recorded as 0.03, the MIC90 came to 0.008 µM and the “MIC90 LORA/MABA” value was found to be 4.0.

For the molecule `CO[C@H]1/C=C/O[C@@]2(C)Oc3c(C)c(O)c4c(=O)c(c5oc6cc(N7CCC(CC(=O)O)CC7)cc(C)c6nc-5c4c3C2=O)NC(=O)/C(C)=C\C=C\[C@H](C)[C@H](O)[C@@H](C)[C@@H](O)[C@@H](C)[C@H](OC(C)=O)[C@@H]1C` [Compound 29g, 2-{4-[(7S,9E,11S,12R,13S,14R,15R,16R,17S,18S,19E,21Z)-13-(acetyloxy)-2,15,17-trihydroxy-11-methoxy-3,7,12,14,16,18,22,32-octamethyl-6,23,37-trioxo-8,27,38-trioxa-24,34-diazahexacyclo[23.11.1.1^4,7.0^5,36.0^26,35.0^28,33]octatriaconta-1,3,5(36)9,19,21,25,28,30,32,34-undecaen-30-yl]piperidin-4-yl}acetic acid], the MBC in assay [1] was above 0.1 µM. Besides, in assay [2], the “MIC90 LORA Rel to RMP” value was determined as 10, the MIC90 turned out to be 0.28 µM (≈ 0.263 µg/mL) and the “MIC90 LORA/MABA” value turned out to be 5.4.
